Data taken from patent US20090305995A1, “AGONISTS AND ANTAGONISTS OF THE SOMATOSTATIN RECEPTOR” (Novartis AG, priority 2004, published 2009).
In brackets after ≈: the same amount, converted by molar mass. Like-named read-outs stand apart in the source and are kept apart here.

How the values were obtained:
Format in all cases: physicochemical
[1] = high throughput permeability (HT-Permeability, log Pe); details: PAMPA, Pe in cm/s
[2] = high throughput solubility (HT-Solubility)
[3] = HT-logP o/w, high throughput assay based on artificial liquid membrane permeability
Excerpt: To be absorbed and transported by passive diffusion, drugs must be sufficiently lipophilic to penetrate the lipid cores of membranes, but not too lipophilic that they get retained and accumulated there. The lipophilictity of a compound is expressed by the octanol/water partition coefficient or distribution coefficient. A first approximation of substance polarity can either be given by computer assisted calculations giving Clog P values or by measurement of the partition coefficients in high-throughput assays (HT-log P o/w) (Faller et al., 2004; Wohnsland et al., 2001).
Octanol/water partition coefficients are measured in a high throughput assay based on artificial liquid membrane permeability. […] Still many approaches to calculate log P values are limited due to a lack of parameterization of certain fragments and fail with increasing molecular weight which implicates higher structural complexity. Similar problems and failures are observed in chromatographic determinations of log P: Peptides might undergo structural changes driven by interactions with the stationary phase. Decisive interactions between the stationary phase and the defolded analytes are therefore also based on the linear peptide sequence. For this reason measured HT-log P o/w values based on chromatographic assays employing stationary phases may lead to erroneous results.

[4] = pH 4, pH 4.0, read-out: HT-Permeability logPe pH 4.0 (converted)
[5] = pH 1, pH 1.0, read-out: HT-Solubility pH 1.0
[6] = pH 6.8, pH 6.8, read-out: HT-Solubility pH 6.8
[7] = octanol/water, read-out: HT LogP ohw
[8] = pH 8, pH 8.0, read-out: HT-Permeability logPe pH 8.0 (converted)
[9] = pH 6.8, pH 6.8, read-out: HT-Permeability logPe pH 6.8 (converted)

Row | SMILES | Papp [1, 4] | solubility [2, 5] | solubility [2, 6] | logP [3, 7] | Papp [1, 8] | Papp [1, 9] | water solubility (in words) ([2]; see FIG. 10) | Papp ([1]; pH 4.0, read-out: HT-Permeability logPe pH 4.0 (converted)) | solubility ([2]; pH 1.0, read-out: HT-Solubility pH 1.0) | solubility ([2]; pH 6.8, read-out: HT-Solubility pH 6.8) | logP ([3]; octanol/water; read-out: HT LogP ohw)
1 | CCCCNC(=O)C[C@H](CCCCN)NC(=O)[C@@H](Cc1c[nH]c2ccccc12)NC(=O)C[C@H](Cc1ccccc1)NC(=O)CCC [Compound 54, Butyroyl-(S)-β^3-HPhe-(R)-Trp-(S)-β^3-HLys-butyl-amide] | 0.1 ×10⁻⁶ cm/s | 127 µg/mL (≈ 200 µM) | 12.7 µg/mL (≈ 20.1 µM) | 3.5 |  |  |  |  |  |  | 
2 | CCCCN(C)C(=O)C[C@H](CCCCN)NC(=O)[C@@H](Cc1c[nH]c2ccccc12)NC(=O)C[C@H](Cc1ccccc1)NC(=O)CC [Compound 43, Propionyl-(S)-β^3-HPhe-(R)-Trp-(S)-β^3-HLys-methyl-butyl-amide] | 1 ×10⁻⁶ cm/s | 127 µg/mL (≈ 200 µM) | 126 µg/mL (≈ 200 µM) | 3 | 1.26 ×10⁻⁶ cm/s | 2 ×10⁻⁶ cm/s | highest solubility values |  |  |  | 
3 | C[C@@H](O)[C@@H](CC(N)=O)NC(=O)C[C@H](CCCCN)NC(=O)[C@@H](Cc1c[nH]c2ccccc12)NC(=O)C[C@H](Cc1ccccc1)NC(=O)c1ccccc1 [Compound 14, Benzoyl-(S)-β^3-HPhe-(R)-Trp-(S)-β^3-HLys-(R), (R)—HThr-NH2] |  |  |  |  |  |  |  | 0.1 ×10⁻⁶ cm/s | 145 µg/mL (≈ 200 µM) | 14.5 µg/mL (≈ 20 µM) | 2.6
4 | CCCCCCCCC(=O)N[C@H](CC(=O)N[C@H](Cc1c[nH]c2ccccc12)C(=O)N[C@@H](CCCCN)CC(=O)N[C@@H]1CC(=O)O[C@@H]1C)Cc1ccccc1 [Compound 11] | 0.1 ×10⁻⁶ cm/s | 14.9 µg/mL (≈ 20 µM) | 14.9 µg/mL (≈ 20 µM) | 3.9 |  |  |  |  |  |  | 
5 | CCCC(=O)N[C@H](CC(=O)N[C@H](Cc1c[nH]c2ccccc12)C(=O)N[C@@H](CCCCN)CC(N)=O)Cc1ccccc1 [Compound 61, Butyroyl-(S)-β^3-HPhe-(R)-Trp-(S)-β^3-HLys-NH2] | 1.26 ×10⁻⁶ cm/s | 115 µg/mL (≈ 200 µM) | 115 µg/mL (≈ 200 µM) | 2.8 | 1 ×10⁻⁶ cm/s |  |  |  |  |  | 
6 | NCCCC[C@@H](CC(=O)NC1CCCC1)NC(=O)[C@@H](Cc1c[nH]c2ccccc12)NC(=O)C[C@H](Cc1ccccc1)NC(=O)C12CC3CC(CC(C3)C1)C2 [Compound 34, Adamantoyl-(S)-β^3-HPhe-(R)-Trp-(S)-β^3-HLys-cyclopentyl-amide] | 5.01 ×10⁻⁶ cm/s | 147 µg/mL (≈ 200 µM) | 73.7 µg/mL (≈ 100 µM) | 5.2 | 1.26 ×10⁻⁶ cm/s | 6.31 ×10⁻⁶ cm/s |  |  |  |  | 
7 | CC(C)[C@@H](CC(=O)N(C)CCc1ccccc1)NC(=O)C[C@H](CCCCN)NC(=O)[C@@H](Cc1c[nH]c2ccccc12)NC(=O)C[C@H](Cc1ccccc1)NC(=O)CCc1ccccc1 [Compound 23, Dihydrocinnemoyl-(S)-β^3-HPhe-(R)-Trp-(S)-β^3-HLys-(R)-β^3-Leu-methyl-phenethyl-amide] | 0.1 ×10⁻⁶ cm/s | 17.4 µg/mL (≈ 20 µM) | 17.4 µg/mL (≈ 20 µM) | 5.9 |  |  |  |  |  |  | 

Continued, in another order:

Row | Papp [1, 4] | solubility [2, 5] | solubility [2, 6] | logP [3, 7] | Papp [1, 8] | Papp [1, 9] | water solubility (in words) ([2]; see FIG. 10) | SMILES | Papp ([1]; pH 4.0, read-out: HT-Permeability logPe pH 4.0 (converted)) | solubility ([2]; pH 1.0, read-out: HT-Solubility pH 1.0) | solubility ([2]; pH 6.8, read-out: HT-Solubility pH 6.8) | logP ([3]; octanol/water; read-out: HT LogP ohw)
8 | 0.1 ×10⁻⁶ cm/s | 129 µg/mL (≈ 200 µM) | 12.9 µg/mL (≈ 20 µM) | 3 |  |  |  | CCCC(=O)N[C@H](CC(=O)N[C@H](Cc1c[nH]c2ccccc12)C(=O)N[C@@H](CCCCN)CC(=O)NC1CCCC1)Cc1ccccc1 [Compound 56, Butyroyl-(S)-β^3-HPhe-(R)-Trp-(S)-β^3-HLys-cyclopentyl-amide] |  |  |  | 
9 | 5.01 ×10⁻⁶ cm/s | 115 µg/mL (≈ 200 µM) | 115 µg/mL (≈ 200 µM) | 2.9 | 3.98 ×10⁻⁶ cm/s |  |  | NCCCC[C@@H](CC(=O)NC1CCCC1)NC(=O)[C@@H](Cc1c[nH]c2ccccc12)NC(=O)C[C@@H](N)Cc1ccccc1 [Compound 62, (S)-β^3-HPhe-(R)-Trp-(S)-β^3-HLys-cyclopentyl-amide] |  |  |  | 
10 | 1 ×10⁻⁶ cm/s | 126 µg/mL (≈ 200 µM) | 63.1 µg/mL (≈ 100 µM) | 2.8 |  |  |  | CCC(=O)N[C@H](CC(=O)N[C@H](Cc1c[nH]c2ccccc12)C(=O)N[C@@H](CCCCN)CC(=O)NC1CCCC1)Cc1ccccc1 [Compound 57, Propionyl-(S)-β^3-HPhe-(R)-Trp-(S)-β^3-HLys-cyclopentyl-amide] |  |  |  | 
